Values joined by “and” are separate entries in the source; they are usually repeats but may differ in a detail not shown here. Equal values may be shown once.
Test system: WM3248 melanoma cells, 486 antibodies
Assay: Reverse phase protein arrays (RPPA)
Type: cell-based, Human
Details: 5 uM
Excerpt: Pellets were snap frozen in liquid nitrogen and shipped to MD Anderson Cancer Center core RPPA facility for RPPA analysis (Table S5). Three biological replicates for each sample were generated.
Nomenclatures on the RPPA heatmaps: name_of_antibody.species_of_antibody.status_of_antibody. V - antibody validated; C - validation of antibody in progress; Q - antibody nonspecific; E – under evaluation; antibodies raised in M - mouse, G - goat, R - rabbit, or T - rat.

## CN(C)c1cccc(Nc2cc(-c3ccccc3)nc(C3CCNCC3)n2)c1 [ARN22089, N1,N1-dimethyl-N3-(6-phenyl-2-(piperidin-4-yl)pyrimidin-4-yl)benzene-1,3-diamine]
Single replicates
  RPPA level IGF1R_pY1135_Y1136.R.V: 0.923 and 1.035 and 1.147
  RPPA level IGFBP2.R.V: 0.536 and 0.864 and 1.227
  RPPA level IGFBP3.M.V: 0.749 and 0.955 and 1.168
  RPPA level IGFRb.R.C: 0.930 and 1.171
  RPPA level IL.6.R.C: 0.941 and 1.064 and 1.146
  RPPA level IMP3.R.C: 0.986 and 0.965
  RPPA level INPP4b.R.C: 1.116 and 0.899 and 0.832
  RPPA level IR.b.R.C: 1.320 and 1.103
  RPPA level IRF.1.R.V: 0.717 and 1.139 and 1.144
  RPPA level IRF.3.R.V: 0.919 and 1.034
  RPPA level IRS1.R.V: 0.981
  RPPA level IRS2.R.C: 0.999 and 0.927 and 0.986
  RPPA level JAB1.M.C: 1.009 and 0.971
  RPPA level JNK2.R.V: 0.702 and 1.165 and 0.800
  RPPA level JNK_pT183_Y185.R.C: 0.946 and 1.035 and 1.097
  RPPA level Jagged1.R.V: 0.958 and 1.186 and 0.974
  RPPA level Jak2.R.V: 0.877 and 1.121
  RPPA level KAP1.R.V: 1.023 and 0.961 and 0.759
  RPPA level KEAP1.R.V: 1.060 and 0.798 and 0.885
  RPPA level LAD1.R.V: 0.906 and 1.221 and 0.985
  RPPA level LC3A.B.R.C: 0.962 and 0.690
  RPPA level LCN2.R.V: 2.079 and 0.667 and 0.750
  RPPA level LDHA.R.C: 1.269 and 0.924 and 0.174
  RPPA level LRP6_pS1490.R.V: 0.923 and 1.082 and 1.190
  RPPA level Lasu1.R.V: 0.830 and 0.833
  RPPA level Lck.R.V: 0.914 and 1.025 and 0.835
  RPPA level Lyn.R.V: 0.857 and 0.712
  RPPA level MACC1.R.V: 0.983 and 0.952 and 1.126
  RPPA level MAPK_pT202_Y204.R.C: 0.962 and 0.989 and 1.287
  RPPA level MCT4.R.V: 0.631 and 1.046 and 1.198
  RPPA level MDM2_pS166.R.V: 0.981 and 1.059 and 0.658
  RPPA level MEK1.R.V: 0.979 and 2.685
  RPPA level MEK1_pS217_S221.R.V: 0.968 and 1.488 and 0.918
  RPPA level MEK2.R.V: 1.028 and 1.188 and 0.905
  RPPA level MERIT40.R.C: 0.976 and 0.913
  RPPA level MERIT40_pS29.R.V: 0.986 and 0.944
  RPPA level METTL3.R.V: 1.157 and 0.890 and 0.714
  RPPA level MIF.R.C: 0.954 and 1.000
  RPPA level MIG6.R.V: 1.004 and 0.977
  RPPA level MITF.R.V: 1.035 and 0.897
  RPPA level MLH1.M.V: 0.967 and 0.818
  RPPA level MLKL.R.V: 0.948
  RPPA level MMP2.R.V: 1.053 and 0.940 and 0.993
  RPPA level MMP14.R.V: 0.806 and 0.852 and 1.235
  RPPA level MR1.M.C: 0.985 and 1.126 and 0.989
  RPPA level MRAP.R.C: 1.027 and 1.099 and 1.056
  RPPA level MSH2.R.C: 0.981 and 0.975 and 0.839
  RPPA level MSH6.R.C: 0.974 and 1.034 and 0.768
  RPPA level MSI2.R.C: 1.007 and 0.996 and 1.009
  RPPA level MTCO1.M.V: 1.026 and 0.959 and 0.846
  RPPA level MTSS1.M.C: 0.922 and 1.002
  RPPA level Mcl.1.R.V: 0.903 and 1.197 and 1.129
  RPPA level MelanA.R.C: 0.929 and 1.064 and 1.083
  RPPA level Melanoma.gp100.R.C: 0.903 and 1.116 and 1.163
  RPPA level Merlin.R.C: 0.905 and 1.160 and 0.615
  RPPA level Midkine.R.V: 1.000 and 0.968 and 1.034
  RPPA level Mitofusin.1.R.V: 0.993 and 1.106 and 1.060
  RPPA level Mitofusin.2.R.V: 0.878 and 0.979
  RPPA level Mnk1.R.V: 1.011 and 1.102
  RPPA level mTOR.R.V: 1.085 and 1.120 and 0.844
  RPPA level mTOR_pS2448.R.C: 1.164 and 0.821
  RPPA p21.R.C: 1.391 and 0.730 and 1.025
  RPPA p27.Kip1.R.C: 1.014 and 0.921 and 0.908
  RPPA p27_pT157.R.C: 0.998 and 1.050 and 0.780
  RPPA p27_pT198.R.V: 0.905 and 1.281 and 1.122
  RPPA p38.MAPK.R.V: 1.001 and 1.097
  RPPA p38.MAPK._pT180_Y182.R.V: 0.866 and 2.597 and 1.276
  RPPA p38.a.M.V: 1.063 and 0.940 and 0.948
  RPPA p44.42.MAPK.R.V: 1.135 and 1.025 and 0.778
  RPPA p53.R.C: 0.836 and 1.157 and 1.162
  RPPA p70.S6K1.R.V: 1.053 and 0.972
  RPPA p70.S6K_pT389.R.V: 0.923 and 1.455 and 1.050
  RPPA p90RSK_pT573.R.C: 1.055 and 0.692
Single samples
  RPPA DNMT1.R.V: 0.942 and 1.005
  RPPA DRP1.R.V: 1.048 and 0.924 and 1.058
  RPPA DUSP4.R.V: 1.207
  RPPA DUSP6.R.C: 1.757
  RPPA DYRK1B.R.C: 1.023 and 0.961 and 1.055
  RPPA Dvl3.R.V: 0.942 and 1.023 and 1.077
  RPPA E2F1.R.V: 0.971 and 1.007 and 0.906
  RPPA E.Cadherin.R.V: 0.967 and 0.935 and 0.968
  RPPA EGFR.R.V: 0.950 and 1.055 and 0.936
